Key:
[1] = tested on: T1, BCR::ABL1 (Ba/F3 isogenic cells); assay: Ba/F3 MTS viability assay; type: cell-based; settings: growth of BCR::ABL1-dependent Ba/F3 cells; parental Ba/F3 + IL-3 as control
T1 construct: BCR::ABL1 fusion oncoprotein, one polypeptide (BCR N-terminal, ABL1 C-terminal); expressed in murine Ba/F3 cells by electroporation; with Breakpoint cluster region protein

[2] = tested on: T1, BCR::ABL1 (Ba/F3 isogenic cells); assay: Ba/F3 MTS viability assay; type: cell-based; settings: growth of BCR::ABL1-dependent Ba/F3 cells; stated gain

Compound: Cc1ccc(-n2nc(C(C)(C)C)cc2NC(=O)NCc2cc(F)ccc2Oc2ccc3c(cnn3CCO)c2)cc1 [pexmetinib]
- IC50 [1]: 0.411 µM
- IC50 [2]: 2.099 µM
